Laboratory results reported in patent publication US20100113332A1, “METHOD OF TREATING AN INFLAMMATORY DISEASE BY DOUBLE STRANDED RIBONUCLEIC ACID” (NASTECH PHARMACEUTICAL COMPANY INC., priority 2004, published 2010).

Key:
TNF-α = experiment: mouse LPS response, TNF-α in blood; format: in vivo; settings: 2 mg/kg siRNA, with or without PN73; vs negative controls
Protocol: Normal [mouse type] mice were treated with various concentrations of LPS by intraperitoneal or intravenous injections. LPS responsiveness was determined by measuring levels of TNF-α in blood that was sampled various times following the LPS injection. A linear range of TNF-α induction was found between 10 ng and 100 ng for LPS injection by IP administration and up to 25 ng by IV injection. The average time for maximal TNF-α induction is 70 minutes following LPS injection.
The LPS induction was performed 24 hr following the last siRNA injection, 0.2 ug LPS and blood was collected at 90 minutes following LPS injection.
Three studies of 30 animals each dosing by the following schedules: 4 consecutive days; 8 consecutive days; and 11 consecutive days. LPS induction was performed at 24 hr post siRNA injection, 25 ng LPS (IP). Blood was drawn 70 minutes following LPS injection. […] Results from measurements and 8 and 11 days gave variable results owing to technical problems partly arising from repeated tail injections.

TNF-α mRNA = experiment: TNF-α knockdown in human monocytes (branch DNA);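 further: LPS-activated human CD14+ monocytes, TNF-α mRNA read by branched DNA assay and normalized to cypB mRNA, knockdown compared with random-sequence Qneg siRNA as negative control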
Source text: For mRNA measurement, branch DNA technology from Genospectra (CA) was used according to manufacturer's specification. Human monocytes (CD14+) treated with LPS induce TNF-α-specific mRNA within approximately 2 hrs, followed by peak levels of TNF-α protein 2 hrs later. siRNAs were screened for knockdown activity by transfecting monocytes with siRNA candidate sequences using Lipofectamine 2000, treating infected cells with LPS, and measuring TNF-α mRNA levels approximately 16 hrs later.
To quantitate mRNA level in the cells, both house keeping gene (cypB) and target gene (TNF-α) mRNA were measured, and the reading for TNF-α was normalized with cypB to obtain relative luminescence unit.
Qneg represents a random siRNA sequence and functions as the negative control in these experiments.

[1] = tested on: human TNF-α transgenic mice; experiment: RA paw score in human TNF-α transgenic mice; settings: group TNF #4
Protocol: For human TNF-α animal disease models, two transgenic models were used. The tg197 mice were acquired from Pasteur Hellenic Institute (Athens, Greece), and the B6.SJL-Tg(TNF) N21 mice were purchased from Taconic, Inc. (Germantown, N.Y.). The genotypes of both human TNF-α transgenic mouse models were performed by suppliers. […] All treatments were by tail vein injection twice a week. […] A similar dose regimen was used for B6.SJL-Tg(TNF) N21 mice. Clinical scores were based on a previously described scoring system (2, 3) as follows: 0 (normal), 1 (edema or distortion of paw or ankle joints), 2 (distortion of paw and ankle joints), or 3 (ankylosis of wrist or ankle joints). The sum of all four paws was scored twice a week with a maximum score of 12 per mouse.
For Hellenic transgenic mice, RA scores were determined (blinded to treatment) using the following criteria: 0, normal; 1, edema or distortion of paw or ankle joints; 2 distortion of paw and ankle joints; 3, ankylosis of wrist or ankle joints.
Human NF-α expressing mice were purchase from the Hellenic Pasture Institute, Greece) at 5 weeks old. […] During the injection periods, plasma samples were collected for ELISA testing (R&D Systems, Cat#SSTA00C), and paw scores were taken twice a week as an accepted index of RA disease progression and therapeutic efficacy (Table 19).
Due to the difference in the starting point (some animals present with scores at earlier points), the scores have been adjusted to 0 for all animals in the experiments. Each paw is given a score between 0 and 3, with the highest score of 12, according to the following scoring index. • 0: Normal • 1: edema or distortion of paw or ankle joints • 2: distortion of paw and ankle joints • 3: ankylosis of wrist or ankle joints.

## AAUCCUCAGCCUCUUCUCCUU (siRNA; chemistry not fully specified) [LC13]
TNF-α
  circulating TNF-α resulting from LPS induction: lowered amounts of circulating TNF-α
TNF-α mRNA; absence of PN73, 0-2.5 nM
  TNF-α knockdown activity (FIG. 6-C): little knockdown activity
TNF-α mRNA; siRNA 4 nM complexed with 1.6 uM PN73
  KD (%) TNF-α: 48.29%
TNF-α mRNA; siRNA 4 nM complexed with 1.6 uM PN509
  KD (%) TNF-α: 25.04%
TNF-α mRNA; siRNA 20 nM complexed with 0.5 uM PN250
  KD (%) TNF-α: 20.65%
TNF-α mRNA; siRNA 20 nM complexed with 0.75 uM PN250
  KD (%) TNF-α: 18.04%
TNF-α mRNA; siRNA 20 nM complexed with 1 uM PN250
  KD (%) TNF-α: 31.35%
TNF-α mRNA; siRNA complexed with PN73 1:1, 0-2.5 nM
  decrease in TNF-α gene expression relative to Qneg control (FIG. 6-B): ~15%
[1]
  Relative effect of siRNA, paw score: Overall low paw score
